This is an account of results in PubChem BioAssay (NCI).

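Five compound concentrations were applied to cells in 96-well plates for 48 hours; endpoints were derived by simple linear interpolation of the resulting dose-response curve. At the GI50, growth is halved. TGI: total growth inhibition.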

The first experiment deals with SF-268 CNS. Nature of the experiment: DTP human tumour cell line panel, 48 h.
On to `N#C/C(=C/N1CCN(C(=O)c2ccco2)C1=S)C(=O)c1ccccc1`, for which the GI50 is 31.2 µM and the TGI was 93.3 µM.
On to `Nc1nc(SN=Nc2ccc(S(N)(=O)=O)cc2)c2[nH]cnc2n1`, for which the GI50 was 0.563 µM and the TGI is > 100 µM.
`COCCOc1cnc2ccn([C@H](C)c3nnc4c(F)cc(-c5cnn(C)c5)cn34)c(=O)c2c1`: the GI50 was > 100 µM and the TGI is > 100 µM.
On to `CCc1ccccc1NC(=O)c1sc2nc3c(cc2c1N)C(=O)CCC3`, for which the GI50 is 11.9 µM and the TGI was > 100 µM.
For the compound `CC(C)CNC(=O)O`, the TGI is > 100 µM.
As to `C[C@]12CC[C@@H]3c4ccc(O)cc4CC[C@H]3[C@@H]1CC[C@@H]2NS(=O)(=O)c1cccc(F)c1`, the GI50 is 4.1 µM and the TGI amounted to 16 µM.
In the case of `CCC(C)(C)c1ccc(OCCCCCCN2CCNCC2)cc1`, the GI50 is 3.78 µM and the TGI came to 14 µM.
With `Cc1cc(S(=O)(=O)N/N=C(\Sc2cc(Cl)c(C)cc2S(N)(=O)=O)c2ccc(Cl)cc2)c(Cl)cc1Cl`, the GI50 was > 100 µM and the TGI is > 100 µM.
Consider `COc1ccc(C(=O)COc2cccc(/C=C3\Oc4ccc5ccccc5c4C3=O)c2)cc1`, for which the GI50 was 3.72 µM and the TGI worked out at 14 µM.
On the same counts, the results for `COc1ccc(-c2oc3cc(O)c(OC)c(O)c3c(=O)c2OC)cc1O` are 0.0754 µM and > 100 µM.
On to `CCn1c(CO)nn(-c2cc(O[C@@H](C)C(F)(F)F)c(C(=O)Nc3c(F)cccc3Cl)cc2F)c1=O`, for which the GI50 was 0.196 µM and the TGI was > 100 µM.
The matching figures for `Cc1cc(C2CC(O)C(CO)O2)cc2c(=O)[nH]c(N)nc12` (stereo not given): > 100 µM and > 100 µM.
For `COc1cc(C2=C(c3cn(C)c4ccccc34)COC2=O)cc(OC)c1OC`, the GI50 is 0.802 µM and the TGI was determined as 7.41 µM.
On the same counts, the results for `COc1ccc(Nc2c3ccccc3nc3occ(Cl)c23)cc1` are 0.0368 µM and 21.5 µM.
On to `Cc1ccc(S(=O)(=O)NCCNc2nccc(-c3c(-c4ccc(F)cc4)nc4sccn34)n2)cc1`, for which the GI50 was 5.58 µM and the total growth inhibition concentration (TGI) is 37.4 µM.
For `O=C(CSC(c1ccccc1)c1ccccc1)N/N=C/c1ccc(Cl)cc1Cl`, the GI50 is 36.8 µM and the TGI is > 100 µM.

Another experiment concerns SF-295 CNS. Nature of the experiment: DTP human tumour cell line panel, 48 h.
With `N#C/C(=C/N1CCN(C(=O)c2ccco2)C1=S)C(=O)c1ccccc1`, the GI50 is 43.6 µM and the TGI was > 100 µM.
On to `Nc1nc(SN=Nc2ccc(S(N)(=O)=O)cc2)c2[nH]cnc2n1`, for which the GI50 is 0.363 µM and the TGI is > 100 µM.
For the compound `COCCOc1cnc2ccn([C@H](C)c3nnc4c(F)cc(-c5cnn(C)c5)cn34)c(=O)c2c1`, the GI50 is 23.4 µM and the TGI is > 100 µM.
Take `CCc1ccccc1NC(=O)c1sc2nc3c(cc2c1N)C(=O)CCC3`: the GI50 was 0.283 µM and the TGI is > 88 µM.
Turning to `CC(C)CNC(=O)O`, the TGI is > 100 µM.
`C[C@]12CC[C@@H]3c4ccc(O)cc4CC[C@H]3[C@@H]1CC[C@@H]2NS(=O)(=O)c1cccc(F)c1`: the GI50 was 3.29 µM and the TGI came to 11.9 µM.
With `CCC(C)(C)c1ccc(OCCCCCCN2CCNCC2)cc1`, the GI50 is 1.87 µM and the TGI came out at 3.6 µM.
As for `Cc1cc(S(=O)(=O)N/N=C(\Sc2cc(Cl)c(C)cc2S(N)(=O)=O)c2ccc(Cl)cc2)c(Cl)cc1Cl`, the GI50 was > 100 µM and the TGI is > 100 µM.
With `COc1ccc(C(=O)COc2cccc(/C=C3\Oc4ccc5ccccc5c4C3=O)c2)cc1`, the GI50 is 14.3 µM and the TGI stood at 36.4 µM.
Turning to `COc1ccc(-c2oc3cc(O)c(OC)c(O)c3c(=O)c2OC)cc1O`, the GI50 was 0.3 µM and the TGI is 2.04 µM.
On to `CCn1c(CO)nn(-c2cc(O[C@@H](C)C(F)(F)F)c(C(=O)Nc3c(F)cccc3Cl)cc2F)c1=O`, for which the GI50 is < 0.01 µM and the TGI was > 100 µM.
Consider `Cc1cc(C2CC(O)C(CO)O2)cc2c(=O)[nH]c(N)nc12` (stereo not given), for which the GI50 was > 100 µM and the TGI was > 100 µM.
In the case of `COc1ccc(Nc2c3ccccc3nc3occ(Cl)c23)cc1`, the GI50 is < 0.01 µM and the TGI came to 0.0558 µM.
As to `Cc1ccc(S(=O)(=O)NCCNc2nccc(-c3c(-c4ccc(F)cc4)nc4sccn34)n2)cc1`, the GI50 was 12.6 µM and the TGI was found to be 77.1 µM.
The matching figures for `O=C(CSC(c1ccccc1)c1ccccc1)N/N=C/c1ccc(Cl)cc1Cl`: 33.6 µM and 90.8 µM.

A further experiment deals with NCI-H522 lung. Nature of the experiment: DTP human tumour cell line panel, 48 h.
Consider `N#C/C(=C/N1CCN(C(=O)c2ccco2)C1=S)C(=O)c1ccccc1`, for which the GI50 is 3.74 µM and the TGI stood at 12.3 µM.
Turning to `Nc1nc(SN=Nc2ccc(S(N)(=O)=O)cc2)c2[nH]cnc2n1`, the GI50 was 1.08 µM and the TGI came to 43.1 µM.
In the case of `COCCOc1cnc2ccn([C@H](C)c3nnc4c(F)cc(-c5cnn(C)c5)cn34)c(=O)c2c1`, the GI50 is > 100 µM and the TGI is > 100 µM.
For `CCc1ccccc1NC(=O)c1sc2nc3c(cc2c1N)C(=O)CCC3`, the GI50 was 0.502 µM and the TGI was > 100 µM.
`CC(C)CNC(=O)O`: the TGI is > 100 µM.
`C[C@]12CC[C@@H]3c4ccc(O)cc4CC[C@H]3[C@@H]1CC[C@@H]2NS(=O)(=O)c1cccc(F)c1`: the GI50 was 1.89 µM and the TGI worked out at 7.6 µM.
The matching figures for `CCC(C)(C)c1ccc(OCCCCCCN2CCNCC2)cc1`: 2.23 µM and 5.67 µM.
As to `Cc1cc(S(=O)(=O)N/N=C(\Sc2cc(Cl)c(C)cc2S(N)(=O)=O)c2ccc(Cl)cc2)c(Cl)cc1Cl`, the GI50 was 72.7 µM and the TGI was > 100 µM.
With `COc1ccc(C(=O)COc2cccc(/C=C3\Oc4ccc5ccccc5c4C3=O)c2)cc1`, the GI50 was 1.46 µM and the TGI amounted to 3.29 µM.
For the compound `COc1ccc(-c2oc3cc(O)c(OC)c(O)c3c(=O)c2OC)cc1O`, the GI50 was 0.0589 µM and the TGI was 7.87 µM.
As for `CCn1c(CO)nn(-c2cc(O[C@@H](C)C(F)(F)F)c(C(=O)Nc3c(F)cccc3Cl)cc2F)c1=O`, the GI50 is < 0.01 µM and the TGI was > 100 µM.
The matching figures for `Cc1cc(C2CC(O)C(CO)O2)cc2c(=O)[nH]c(N)nc12` (stereo not given): > 100 µM and > 100 µM.
In the case of `COc1cc(C2=C(c3cn(C)c4ccccc34)COC2=O)cc(OC)c1OC`, the GI50 was 0.0485 µM and the TGI came to 0.716 µM.
The matching figures for `COc1ccc(Nc2c3ccccc3nc3occ(Cl)c23)cc1`: < 0.0119 µM and 6.92 µM.
As to `Cc1ccc(S(=O)(=O)NCCNc2nccc(-c3c(-c4ccc(F)cc4)nc4sccn34)n2)cc1`, the GI50 was 6.95 µM and the TGI is > 100 µM.
Turning to `O=C(CSC(c1ccccc1)c1ccccc1)N/N=C/c1ccc(Cl)cc1Cl`, the GI50 is 12.4 µM and the TGI was determined as 59.2 µM.

The next experiment relates to MCF7 breast. Briefly: DTP human tumour cell line panel, 48 h.
With `N#C/C(=C/N1CCN(C(=O)c2ccco2)C1=S)C(=O)c1ccccc1`, the GI50 is 4.47 µM and the TGI is > 100 µM.
On the same counts, the results for `Nc1nc(SN=Nc2ccc(S(N)(=O)=O)cc2)c2[nH]cnc2n1` are 0.289 µM and > 100 µM.
For the compound `COCCOc1cnc2ccn([C@H](C)c3nnc4c(F)cc(-c5cnn(C)c5)cn34)c(=O)c2c1`, the GI50 is > 100 µM and the TGI is > 100 µM.
Take `CCc1ccccc1NC(=O)c1sc2nc3c(cc2c1N)C(=O)CCC3`: the 50% growth inhibitory concentration (GI50) is 0.328 µM and the TGI was > 100 µM.
In the case of `CC(C)CNC(=O)O`, the TGI was > 100 µM.
Regarding `C[C@]12CC[C@@H]3c4ccc(O)cc4CC[C@H]3[C@@H]1CC[C@@H]2NS(=O)(=O)c1cccc(F)c1`, the GI50 is 3.49 µM and the TGI turned out to be 11 µM.
As for `CCC(C)(C)c1ccc(OCCCCCCN2CCNCC2)cc1`, the GI50 is 1.56 µM and the total growth inhibition concentration (TGI) was found to be 3.2 µM.
As for `Cc1cc(S(=O)(=O)N/N=C(\Sc2cc(Cl)c(C)cc2S(N)(=O)=O)c2ccc(Cl)cc2)c(Cl)cc1Cl`, the GI50 is 42.8 µM and the TGI is > 100 µM.
For the compound `COc1ccc(C(=O)COc2cccc(/C=C3\Oc4ccc5ccccc5c4C3=O)c2)cc1`, the GI50 is 2.45 µM and the TGI turned out to be 16.1 µM.
The matching figures for `COc1ccc(-c2oc3cc(O)c(OC)c(O)c3c(=O)c2OC)cc1O`: 0.316 µM and > 100 µM.
On the same counts, the results for `CCn1c(CO)nn(-c2cc(O[C@@H](C)C(F)(F)F)c(C(=O)Nc3c(F)cccc3Cl)cc2F)c1=O` are < 0.01 µM and > 100 µM.
Take `Cc1cc(C2CC(O)C(CO)O2)cc2c(=O)[nH]c(N)nc12` (stereo not given): the GI50 is > 100 µM and the TGI is > 100 µM.
Turning to `COc1cc(C2=C(c3cn(C)c4ccccc34)COC2=O)cc(OC)c1OC`, the GI50 was 0.0274 µM and the TGI was > 19.8 µM.
In the case of `COc1ccc(Nc2c3ccccc3nc3occ(Cl)c23)cc1`, the GI50 is < 0.01 µM and the TGI is > 33.2 µM.
On to `Cc1ccc(S(=O)(=O)NCCNc2nccc(-c3c(-c4ccc(F)cc4)nc4sccn34)n2)cc1`, for which the GI50 is 1.48 µM and the TGI is > 100 µM.
For the compound `O=C(CSC(c1ccccc1)c1ccccc1)N/N=C/c1ccc(Cl)cc1Cl`, the GI50 is 7.82 µM and the TGI worked out at 29.2 µM.

A further experiment concerns SK-MEL-28 melanoma. Briefly: DTP human tumour cell line panel, 48 h.
With `N#C/C(=C/N1CCN(C(=O)c2ccco2)C1=S)C(=O)c1ccccc1`, the GI50 is 28 µM and the TGI was > 100 µM.
On to `Nc1nc(SN=Nc2ccc(S(N)(=O)=O)cc2)c2[nH]cnc2n1`, for which the GI50 is 2.29 µM and the TGI was > 52.5 µM.
Regarding `COCCOc1cnc2ccn([C@H](C)c3nnc4c(F)cc(-c5cnn(C)c5)cn34)c(=O)c2c1`, the GI50 is > 100 µM and the TGI was > 100 µM.
`CCc1ccccc1NC(=O)c1sc2nc3c(cc2c1N)C(=O)CCC3`: the GI50 was 3.71 µM and the TGI is > 100 µM.
On to `CC(C)CNC(=O)O`, for which the TGI was > 100 µM.
With `C[C@]12CC[C@@H]3c4ccc(O)cc4CC[C@H]3[C@@H]1CC[C@@H]2NS(=O)(=O)c1cccc(F)c1`, the GI50 is 4.81 µM and the TGI was determined as 17.8 µM.
The matching figures for `CCC(C)(C)c1ccc(OCCCCCCN2CCNCC2)cc1`: 1.74 µM and 3.77 µM.
Regarding `Cc1cc(S(=O)(=O)N/N=C(\Sc2cc(Cl)c(C)cc2S(N)(=O)=O)c2ccc(Cl)cc2)c(Cl)cc1Cl`, the GI50 is > 100 µM and the TGI is > 100 µM.
For `COc1ccc(C(=O)COc2cccc(/C=C3\Oc4ccc5ccccc5c4C3=O)c2)cc1`, the GI50 is 15.3 µM and the TGI turned out to be 28.7 µM.
Regarding `COc1ccc(-c2oc3cc(O)c(OC)c(O)c3c(=O)c2OC)cc1O`, the GI50 is 0.0775 µM and the TGI is > 100 µM.
`CCn1c(CO)nn(-c2cc(O[C@@H](C)C(F)(F)F)c(C(=O)Nc3c(F)cccc3Cl)cc2F)c1=O`: the GI50 is > 24.4 µM and the TGI is > 100 µM.
On to `Cc1cc(C2CC(O)C(CO)O2)cc2c(=O)[nH]c(N)nc12` (stereo not given), for which the GI50 is > 100 µM and the TGI was > 100 µM.
